≈ marks a conversion by molar mass, not a printed value. Calls of active or inactive are those of the source. The calls are words filed in the database; no cut-off is given here.
Legend:
Type in all cases: functional
[1] = test system: Escherichia coli; assay: Antibacterial activity against Escherichia coli CICC 10389 assessed as bacterial growth inhibition incubated for 18 to 24 hrs by microtiter dilution method; details: time 18-24 hrs
[2] = test system: Enterococcus faecalis; assay: Antibacterial activity against Enterococcus faecalis assessed as bacterial growth inhibition incubated for 18 to 24 hrs by microtiter dilution method; details: time 18-24 hrs
[3] = test system: Staphylococcus epidermidis; assay: Antibacterial activity against methicillin-resistant Staphylococcus epidermidis ATCC 51625 assessed as bacterial growth inhibition incubated for 18 to 24 hrs by microtiter dilution method; details: time 18-24 hrs
[4] = test system: Staphylococcus aureus; assay: Antibacterial activity against methicillin-resistant Staphylococcus aureus BNCC 337371 assessed as bacterial growth inhibition incubated for 18 to 24 hrs by microtiter dilution method; details: time 18-24 hrs
[5] = test system: Bacillus subtilis; assay: Antibacterial activity against Bacillus subtilis assessed as bacterial growth inhibition incubated for 18 to 24 hrs by microtiter dilution method; details: time 18-24 hrs
[6] = test system: Staphylococcus aureus; assay: Antibacterial activity against Staphylococcus aureus ATCC 25923 assessed as bacterial growth inhibition incubated for 18 to 24 hrs by microtiter dilution method; details: time 18-24 hrs
[7] = test system: Staphylococcus aureus; assay: Antibacterial activity against methicillin-resistant Staphylococcus aureus BNCC 337371 assessed as reduction on bacterial count at 6X MIC incubated for 24 hrs by time killing assay
[8] = test system: Staphylococcus aureus; assay: Antibacterial activity against Staphylococcus aureus ATCC 25923 assessed as reduction on bacterial count at 6X MIC incubated for 24 hrs by time killing assay

Row | Structure (SMILES) | MIC [1] | MIC [2] | MIC [3] | MIC [4] | MIC [5] | MIC [6] | Activity [7] | Activity [8]
1 | C=C[C@]1(C)C[C@@H](OC(=O)CSC2=NC(C)=C(C(=O)OCC)C(C)N2)[C@]2(C)[C@H](C)CC[C@]3(CCC(=O)[C@H]32)[C@@H](C)[C@@H]1O (stereo not given in full) | > 16 µg/mL | > 16 µg/mL | 0.0625 µg/mL (≈ 0.109 µM) | 0.125 µg/mL (≈ 0.217 µM) | > 16 µg/mL | 0.0625 µg/mL (≈ 0.109 µM) |  | 
2 | C=C[C@]1(C)C[C@@H](OC(=O)CSC2=NC(CCC)=C(C(=O)OC)C(C)N2)[C@]2(C)[C@H](C)CC[C@]3(CCC(=O)[C@H]32)[C@@H](C)[C@@H]1O (stereo not given in full) | > 16 µg/mL | > 16 µg/mL | 4 µg/mL (≈ 6.79 µM) | 8 µg/mL (≈ 13.6 µM) | 16 µg/mL (≈ 27.2 µM) | 4 µg/mL (≈ 6.79 µM) |  | 
3 | C=C[C@]1(C)C[C@@H](OC(=O)CSC2=NC(CC(C)C)=C(C(=O)OC)C(C)N2)[C@]2(C)[C@H](C)CC[C@]3(CCC(=O)[C@H]32)[C@@H](C)[C@@H]1O (stereo not given in full) | > 16 µg/mL | > 16 µg/mL | 0.5 µg/mL (≈ 0.829 µM) | 0.5 µg/mL (≈ 0.829 µM) | > 16 µg/mL | 1 µg/mL (≈ 1.66 µM) |  | 
4 | C=C[C@]1(C)C[C@@H](OC(=O)CSc2nc(C)c(C(=O)OC)c(CC(C)C)n2)[C@]2(C)[C@H](C)CC[C@]3(CCC(=O)[C@H]32)[C@@H](C)[C@@H]1O | > 16 µg/mL | > 16 µg/mL | 0.5 µg/mL (≈ 0.832 µM) | 0.25 µg/mL (≈ 0.416 µM) | > 16 µg/mL | 0.25 µg/mL (≈ 0.416 µM) |  | 
5 | C=C[C@]1(C)C[C@@H](OC(=O)CSC2=NC(C(CC)CC)=C(C(=O)OC)C(C)N2)[C@]2(C)[C@H](C)CC[C@]3(CCC(=O)[C@H]32)[C@@H](C)[C@@H]1O (stereo not given in full) | > 16 µg/mL | > 16 µg/mL | 0.25 µg/mL (≈ 0.405 µM) | 0.25 µg/mL (≈ 0.405 µM) | > 16 µg/mL | 0.5 µg/mL (≈ 0.811 µM) |  | 
6 | C=C[C@]1(C)C[C@@H](OC(=O)CSc2nc(C)c(C(C)=O)c(C)n2)[C@]2(C)[C@H](C)CC[C@]3(CCC(=O)[C@H]32)[C@@H](C)[C@@H]1O | > 16 µg/mL | > 16 µg/mL | 0.0313 µg/mL (≈ 0.0577 µM) | ≤ 0.0156 µg/mL | 1 µg/mL (≈ 1.84 µM) | ≤ 0.0156 µg/mL | Active | Active
7 | C=C[C@]1(C)C[C@@H](OC(=O)CSC2=NC(C)=C(C(=O)OC)C(C)N2)[C@]2(C)[C@H](C)CC[C@]3(CCC(=O)[C@H]32)[C@@H](C)[C@@H]1O (stereo not given in full) | > 16 µg/mL | > 16 µg/mL | 0.125 µg/mL (≈ 0.223 µM) | 0.25 µg/mL (≈ 0.446 µM) | 8 µg/mL (≈ 14.3 µM) | 0.25 µg/mL (≈ 0.446 µM) |  | 
8 | C=C[C@]1(C)C[C@@H](OC(=O)CSc2nc(C)c(C(=O)OCCC)c(C)n2)[C@]2(C)[C@H](C)CC[C@]3(CCC(=O)[C@H]32)[C@@H](C)[C@@H]1O | > 16 µg/mL | > 16 µg/mL | 0.125 µg/mL (≈ 0.213 µM) | 0.125 µg/mL (≈ 0.213 µM) | 4 µg/mL (≈ 6.82 µM) | 0.25 µg/mL (≈ 0.426 µM) |  | 
9 | C=C[C@]1(C)C[C@@H](OC(=O)CSc2nc(C)c(C(=O)OC)c(C(CC)CC)n2)[C@]2(C)[C@H](C)CC[C@]3(CCC(=O)[C@H]32)[C@@H](C)[C@@H]1O | > 16 µg/mL | > 16 µg/mL | 0.5 µg/mL (≈ 0.813 µM) | 0.25 µg/mL (≈ 0.407 µM) | > 16 µg/mL | 0.25 µg/mL (≈ 0.407 µM) |  | 
10 | C=C[C@]1(C)C[C@@H](OC(=O)CSc2nc(C)c(C(=O)OC)c(C)n2)[C@]2(C)[C@H](C)CC[C@]3(CCC(=O)[C@H]32)[C@@H](C)[C@@H]1O | > 16 µg/mL | > 16 µg/mL | 0.0313 µg/mL (≈ 0.056 µM) | ≤ 0.0156 µg/mL | 2 µg/mL (≈ 3.58 µM) | ≤ 0.0156 µg/mL | Active | Active
11 | C=C[C@]1(C)C[C@@H](OC(=O)CSC2=NC(CCCC)=C(C(=O)OC)C(C)N2)[C@]2(C)[C@H](C)CC[C@]3(CCC(=O)[C@H]32)[C@@H](C)[C@@H]1O (stereo not given in full) | > 16 µg/mL | > 16 µg/mL | 1 µg/mL (≈ 1.66 µM) | 1 µg/mL (≈ 1.66 µM) | > 16 µg/mL | 1 µg/mL (≈ 1.66 µM) |  | 
